Paper PMC7873226, “Molecular mechanism and structural basis of small-molecule modulation of the gating of acid-sensing ion channel 1” (Communications Biology, 2021)
Substitutions are numbered along the chain they refer to.

What was measured:
[1] = molecular target: T1, rASIC1a F98A (Rattus norvegicus, UniProt P55926, F98A); assay: Inhibition of pH 6.0-induced current of mutant channel F98A; assay type: cell-based
T1 construct: expressed in transfected cells; host or cells: CHO cells, transient transfection (GFP cDNA co-transfected separately)
T1 sequence (P55926 1-526 F98A): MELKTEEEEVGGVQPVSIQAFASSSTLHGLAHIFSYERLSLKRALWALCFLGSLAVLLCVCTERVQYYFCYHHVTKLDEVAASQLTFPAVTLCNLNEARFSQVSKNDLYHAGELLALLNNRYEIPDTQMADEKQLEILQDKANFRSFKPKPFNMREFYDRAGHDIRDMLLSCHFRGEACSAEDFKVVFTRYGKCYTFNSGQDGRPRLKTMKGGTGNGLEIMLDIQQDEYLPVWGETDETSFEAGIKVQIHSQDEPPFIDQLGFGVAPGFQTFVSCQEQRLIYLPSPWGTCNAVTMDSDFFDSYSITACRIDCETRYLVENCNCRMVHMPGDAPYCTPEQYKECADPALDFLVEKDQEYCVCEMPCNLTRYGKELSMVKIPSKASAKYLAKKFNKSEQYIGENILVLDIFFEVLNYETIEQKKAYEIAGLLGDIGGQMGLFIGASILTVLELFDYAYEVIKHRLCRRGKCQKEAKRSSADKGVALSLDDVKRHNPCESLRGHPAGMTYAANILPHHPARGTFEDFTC
Experimental: (§1) Chinese Hamster Ovary (CHO) cells stably expressing rat ASIC1a were cultured in Ham’s F12, supplemented with 10% FBS, 1% penicillin–streptomycin and 500 µg/mL G418 and incubated at 37 °C with 5% CO2. Transient transfections of rASIC1a and cASIC1 wild-type or mutant channels in CHO cells were performed with Lipofectamine 3000 (Thermo Fisher Scientific) according to the manufacturer’s recommendations. The green fluorescent protein (GFP) cDNA (at 1/10 the amount of channel cDNA) was co-transfected with channel cDNA to aid the identification of transfected cells under the microscope in patch clamp experiments. All cDNAs were sequence verified.
(§2) Cells were freshly dissociated with CellStripper (Corning) and dispersed in a chamber on the stage of an inverted microscope. […]
(§3) All recordings were performed at room temperature using an Axopatch 200B amplifier and pClamp 11 software (Molecular Devices). Currents were measured by whole-cell patch clamp, digitized at 10 kHz and lowpass filtered at 2 kHz. […] Responses were elicited by rapid perfusion of acidic solutions using the SF-77B Fast-Step Perfusion device (Warner Instruments) for 40 ms once every 30 s (unless indicated otherwise) and recorded till steady state was reached. […]

[2] = molecular target: T2, rASIC1a Y340A (Rattus norvegicus, UniProt P55926, Y340A); assay: Inhibition of pH 6.0-induced current of mutant channel Y340A; assay type: cell-based
T2 construct: expressed in transfected cells; host or cells: CHO cells, transient transfection (GFP cDNA co-transfected separately)
T2 sequence (P55926 1-526 Y340A): T1 sequence (P55926 1-526 F98A) with A98F, Y340A
Experimental: as §1, §2, §3

Row | Compound | IC50 [1] [nM] | IC50 [2] [nM]
1 | COc1ccc(Oc2ccc(-c3nc4cc(C(=N)N)ccc4[nH]3)cc2)cc1OC [JNJ-799760] | 726 ± 356 | 260 ± 89.8
2 | Cc1cc(N2CC(Oc3cc(F)c4c(N)n[nH]c4c3)C2)c(F)cn1 [JNJ-67869386] | 626 ± 11 | 572 ± 177
